Values quoted from earlier work in patent US11708332B2, “Human plasma kallikrein inhibitors” (BioCryst Pharmaceuticals, Inc., priority 2014, dated 2023).

Columns and labels:
[1] = system: lipopolysaccharide (LPS)- or bacterial-induced sepsis; conditions: LPS- or bacterial-induced sepsis in animals
[2] = system: hereditary angioedema (HAE)
[3] = system: middle cerebral artery occlusion (MCAO); conditions: mouse model of MCAO

## H-D-Pro-Phe-Arg-chloromethylketone
[1]
  lesions: reduce

## ecallantide [DX-88]
[2]; patients with HAE
  edema in patients with hereditary angioedema (HAE): alleviates edema

## NC(N)=NCCC[C@@H](N)C(=O)N[C@@H](CCCN=C(N)N)C(=O)N1CCC[C@H]1C(=O)N1C[C@H](O)C[C@H]1C(=O)NCC(=O)N[C@@H](Cc1cccs1)C(=O)N[C@@H](CO)C(=O)N1Cc2ccccc2C[C@@H]1C(=O)N1[C@H](C(=O)N[C@@H](CCCN=C(N)N)C(=O)O)C[C@@H]2CCCC[C@@H]21 [Icatibant]
[2]; HAE
  effectiveness in treating HAE: effective

B1: Cl-inhibitor: "Cl-inhibitor reduced infarct size in a mouse model of middle cerebral artery occlusion (MCAO)" (protein, UniProt P05155 23-500, looked up)
Plasma protease C1 inhibitor: NPNATSSSSQDPESLQDRGEGKVATTVISKMLFVEPILEVSSLPTTNSTTNSATKITANTTDEPTTQPTTEPTTQPTIQPTQPTTQLPTDSPTQPTTGSFCPGPVTLCSDLESHSTEAVLGDALVDFSLKLYHAFSAMKKVETNMAFSPFSIASLLTQVLLGAGENTKTNLESILSYPKDFTCVHQALKGFTTKGVTSVSQIFHSPDLAIRDTFVNASRTLYSSSPRVLSNNSDANLELINTWVAKNTNNKISRLLDSLPSDTRLVLLNAIYLSAKWKTTFDPKKTRMEPFHFKNSVIKVPMMNSKKYPVAHFIDQTLKAKVGQLQLSHNLSLVILVPQNLKHRLEDMEQALSPSVFKAIMEKLEMSKFQPTLLTLPRIKVTTSQDMLSIMEKLEFFDFSYDLNLCGLTEDPDLQVSAMQHQTVLELTETGVEAAAASAISVARTLLVFEVQQPFLFVLWDQQHKFPVFMGRVYDPRA
[3]
  infarct size: reduced

B2: C1-inhibitor: "a physiological inhibitor (C1-inhibitor)" (protein, UniProt P05155 23-500, looked up)
Plasma protease C1 inhibitor: NPNATSSSSQDPESLQDRGEGKVATTVISKMLFVEPILEVSSLPTTNSTTNSATKITANTTDEPTTQPTTEPTTQPTIQPTQPTTQLPTDSPTQPTTGSFCPGPVTLCSDLESHSTEAVLGDALVDFSLKLYHAFSAMKKVETNMAFSPFSIASLLTQVLLGAGENTKTNLESILSYPKDFTCVHQALKGFTTKGVTSVSQIFHSPDLAIRDTFVNASRTLYSSSPRVLSNNSDANLELINTWVAKNTNNKISRLLDSLPSDTRLVLLNAIYLSAKWKTTFDPKKTRMEPFHFKNSVIKVPMMNSKKYPVAHFIDQTLKAKVGQLQLSHNLSLVILVPQNLKHRLEDMEQALSPSVFKAIMEKLEMSKFQPTLLTLPRIKVTTSQDMLSIMEKLEFFDFSYDLNLCGLTEDPDLQVSAMQHQTVLELTETGVEAAAASAISVARTLLVFEVQQPFLFVLWDQQHKFPVFMGRVYDPRA
[1]
  lesions: reduce
